Literature values as cited in patent publication US20120101390A1, “Multi-Modal Imaging for Diagnosis of Early Stage Epithelial Cancers” (priority 2010, published 2012).

Molecular target: T1, integrin αvβ3 (Homo sapiens, UniProt P05106+P06756)
T1 construct: integrin αvβ3-positive U87MG xenograft models; endogenous in cells; host or cells: U87MG (tumour xenograft)
Conditions: integrin αvβ3-positive U87MG xenograft models

T1 sequence (P06756 31-889 limits assumed): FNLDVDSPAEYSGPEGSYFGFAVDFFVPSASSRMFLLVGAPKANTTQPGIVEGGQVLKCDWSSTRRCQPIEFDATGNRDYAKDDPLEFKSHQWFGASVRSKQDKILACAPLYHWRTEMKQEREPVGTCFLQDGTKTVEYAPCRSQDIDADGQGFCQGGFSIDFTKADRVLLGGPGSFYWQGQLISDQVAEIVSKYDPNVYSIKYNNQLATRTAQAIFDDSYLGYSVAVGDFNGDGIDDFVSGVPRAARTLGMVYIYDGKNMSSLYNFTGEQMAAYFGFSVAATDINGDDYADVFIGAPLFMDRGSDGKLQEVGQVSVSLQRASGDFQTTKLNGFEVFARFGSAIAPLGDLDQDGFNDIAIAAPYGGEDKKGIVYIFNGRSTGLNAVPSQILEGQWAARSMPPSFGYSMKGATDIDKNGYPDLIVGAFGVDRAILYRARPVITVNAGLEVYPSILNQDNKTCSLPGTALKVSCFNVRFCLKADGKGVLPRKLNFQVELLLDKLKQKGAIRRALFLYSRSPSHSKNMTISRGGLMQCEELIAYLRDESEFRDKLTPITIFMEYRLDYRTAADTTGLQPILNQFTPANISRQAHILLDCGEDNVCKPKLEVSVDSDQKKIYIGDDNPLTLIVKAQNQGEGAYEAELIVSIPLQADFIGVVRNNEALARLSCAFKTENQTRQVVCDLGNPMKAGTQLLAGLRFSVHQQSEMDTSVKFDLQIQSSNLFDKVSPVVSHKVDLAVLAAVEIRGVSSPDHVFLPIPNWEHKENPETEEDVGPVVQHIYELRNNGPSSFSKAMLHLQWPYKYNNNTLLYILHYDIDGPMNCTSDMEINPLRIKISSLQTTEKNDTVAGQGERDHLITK
T1 sequence (P06756 891-1048 limits assumed): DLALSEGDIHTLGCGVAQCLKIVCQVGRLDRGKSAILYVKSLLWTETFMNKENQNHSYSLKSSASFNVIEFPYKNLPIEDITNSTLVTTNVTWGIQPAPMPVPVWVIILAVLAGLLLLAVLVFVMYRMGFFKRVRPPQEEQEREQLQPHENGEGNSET
T1 sequence (P05106 27-788): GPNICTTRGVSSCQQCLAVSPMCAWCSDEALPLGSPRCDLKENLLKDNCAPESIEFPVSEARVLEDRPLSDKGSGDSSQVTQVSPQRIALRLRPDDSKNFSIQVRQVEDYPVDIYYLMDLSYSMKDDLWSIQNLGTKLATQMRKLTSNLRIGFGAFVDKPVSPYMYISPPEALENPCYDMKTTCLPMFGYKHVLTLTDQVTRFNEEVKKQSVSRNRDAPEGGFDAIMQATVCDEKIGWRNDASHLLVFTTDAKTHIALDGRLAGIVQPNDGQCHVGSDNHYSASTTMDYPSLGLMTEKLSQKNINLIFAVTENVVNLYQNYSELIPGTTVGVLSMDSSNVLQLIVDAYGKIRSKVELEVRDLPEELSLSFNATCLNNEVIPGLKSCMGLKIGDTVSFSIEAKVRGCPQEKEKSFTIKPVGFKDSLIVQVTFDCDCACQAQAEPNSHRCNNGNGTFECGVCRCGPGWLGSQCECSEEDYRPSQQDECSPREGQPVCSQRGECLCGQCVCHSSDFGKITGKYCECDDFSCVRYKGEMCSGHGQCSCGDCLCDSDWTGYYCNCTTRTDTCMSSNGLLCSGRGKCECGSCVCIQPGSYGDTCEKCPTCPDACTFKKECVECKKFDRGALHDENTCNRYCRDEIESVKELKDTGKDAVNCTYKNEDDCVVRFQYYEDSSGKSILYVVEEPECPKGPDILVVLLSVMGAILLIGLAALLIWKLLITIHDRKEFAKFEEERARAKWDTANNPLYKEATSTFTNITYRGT

E-{G-[c(RGDfK)]2}2
binding relative to the monomeric counterpart: stronger binding

E-[c(RGDfK)]2
binding relative to the monomeric counterpart: stronger binding

E-[G-G-G-c(RGDfK)]2
binding relative to the monomeric counterpart: stronger binding
